These are literature values, as cited in patent US20110038802A1, “METHOD OF DETERMINING ALANINE TRANSAMINASE (ALT) ACTIVITY BY 13C-MR DETECTION USING HYPERPOLARISED 13C-PYRUVATE” (priority 2008, published 2011).

For the data set the following is noted: human full blood, 37° C.

`CC(=O)C(=O)O` [^13C1-pyruvate, sodium ^13C1-pyruvate]: the T1 relaxation entry was “about 42 s”.
